Assay: Particle size of micronized digoxin obtained by the non-mechanical process
Type: physicochemical
Settings: for >90% of the particles (number distribution); digoxin precipitated per Example 1
Description: The digoxin thus obtained has a high purity and is ready to be incorporated in the usual pharmaceutical formulations, typically tablets; it has particle size of 20-30 micrometers for at least 90% of the particles, and is exempt from degradation products, as evident by a wholly neutral colour, and further confirmable analytically. In the present invention, the particle size distribution is meant as “number distribution” (thus not “volume distribution” or “mass distribution”); accordingly, any expressions of the type “x-y micrometers for at least m % of the particles” describes a particle distribution characterized in that at least m % of the number of particles making up the product have a size comprised between x and y micrometers; relevant particle size values can be measured by usual techniques, including laser diffraction, dynamic light scattering, dynamic image analysis, suitably equipped with data processing systems. The obtained digoxin can be formulated with common excipients. Suitable excipients are cellulose products like microcrystalline cellulose, cellulose ethers like methylcellulose, ethylcellulose, hydroxyethylcellulose, crosslinked polymers (e.g. polyplasdone XL, hyaluronic acid or alginic acid cross-linked with urea), gums from plants, etc. Common diluents like mannitol, fructose, as well as compression aids like magnesium stearate, can also be used. […]

Compound: C[C@H]1O[C@@H](O[C@H]2[C@@H](O)C[C@H](O[C@H]3[C@@H](O)C[C@H](O[C@H]4CC[C@@]5(C)[C@H](CC[C@@H]6[C@@H]5C[C@@H](O)[C@]5(C)[C@@H](C7=CC(=O)OC7)CC[C@]65O)C4)O[C@@H]3C)O[C@@H]2C)C[C@H](O)[C@@H]1O [digoxin]
- particle size: 20-30 micrometers

Source: patent US20180207099A1, “NON-[…] FOR THE MIC[…] DIGOXIN” (priority 2015, published 2018)
